“And” between values parts separate entries of the source, which are not always exact repeats. Identical values can stand only once.
System: WM3248 melanoma cells, 486 antibodies
Experiment: Reverse phase protein arrays (RPPA)
Format: cell-based, Human
Source text: Pellets were snap frozen in liquid nitrogen and shipped to MD Anderson Cancer Center core RPPA facility for RPPA analysis (Table S5). Three biological replicates for each sample were generated.
Nomenclatures on the RPPA heatmaps: name_of_antibody.species_of_antibody.status_of_antibody. V - antibody validated; C - validation of antibody in progress; Q - antibody nonspecific; E – under evaluation; antibodies raised in M - mouse, G - goat, R - rabbit, or T - rat.

[1] = level 20 normalized to 0, mean of 3
[2] = level 20 normalized to 0, single replicates

CN(C)c1cccc(Nc2cc(-c3ccccc3)nc(C3CCNCC3)n2)c1 [ARN22089, N1,N1-dimethyl-N3-(6-phenyl-2-(piperidin-4-yl)pyrimidin-4-yl)benzene-1,3-diamine]
MEK1_pS217_S221.R.V Norm_10 (level 10 vs 0, replicates): 0.653 and 1.014
MEK2.R.V Norm_10 (level 10 vs 0, replicates): 0.958
MERIT40.R.C Norm_10 (level 10 vs 0, replicates): 0.835 and 0.967 and 1.096
MERIT40_pS29.R.V Norm_10 (level 10 vs 0, replicates): 1.054 and 0.952 and 1.159
METTL3.R.V Norm_10 (level 10 vs 0, replicates): 0.943 and 1.355 and 1.161
MIF.R.C Norm_10 (level 10 vs 0, replicates): 0.886 and 1.129 and 0.994
MIG6.R.V Norm_10 (level 10 vs 0, replicates): 0.854 and 1.033 and 0.924
MITF.R.V Norm_10 (level 10 vs 0, replicates): 1.203 and 1.053
MLH1.M.V Norm_10 (level 10 vs 0, replicates): 0.862 and 0.921 and 1.113
MLKL.R.V Norm_10 (level 10 vs 0, replicates): 0.834 and 0.796
MMP2.R.V Norm_10 (level 10 vs 0, replicates): 0.901 and 0.975 and 0.933
MMP14.R.V Norm_10 (level 10 vs 0, replicates): 1.370 and 1.223 and 1.159
MR1.M.C Norm_10 (level 10 vs 0, replicates): 0.964 and 0.975
MRAP.R.C Norm_10 (level 10 vs 0, replicates): 1.105 and 1.029 and 0.983
MSH2.R.C Norm_10 (level 10 vs 0, replicates): 0.935 and 1.122
MSH6.R.C Norm_10 (level 10 vs 0, replicates): 1.082 and 1.155
MSI2.R.C Norm_10 (level 10 vs 0, replicates): 1.122 and 1.158 and 0.948
MTCO1.M.V Norm_10 (level 10 vs 0, replicates): 0.961 and 1.134 and 1.079
MTSS1.M.C Norm_10 (level 10 vs 0, replicates): 0.883 and 1.065
Mcl.1.R.V Norm_10 (level 10 vs 0, replicates): 0.859 and 0.752 and 0.834
MelanA.R.C Norm_10 (level 10 vs 0, replicates): 0.771 and 0.904 and 1.047
Melanoma.gp100.R.C Norm_10 (level 10 vs 0, replicates): 0.993 and 0.873 and 0.988
Merlin.R.C Norm_10 (level 10 vs 0, replicates): 1.228 and 1.105
Midkine.R.V Norm_10 (level 10 vs 0, replicates): 0.894 and 0.939 and 0.959
Mitofusin.1.R.V Norm_10 (level 10 vs 0, replicates): 0.986 and 0.948 and 0.964
Mitofusin.2.R.V Norm_10 (level 10 vs 0, replicates): 0.858 and 0.863 and 1.224
Mnk1.R.V Norm_10 (level 10 vs 0, replicates): 0.920 and 0.841 and 0.963
mTOR.R.V Norm_10 (level 10 vs 0, replicates): 0.942 and 0.902 and 1.003
mTOR_pS2448.R.C Norm_10 (level 10 vs 0, replicates): 1.029 and 0.921 and 1.128
TSC1.R.C Norm_20 Average [1]: 0.903
TTF1.R.V Norm_20 Average [1]: 1.162
TUFM.R.V Norm_20 Average [1]: 0.835
Tuberin.R.V Norm_20 Average [1]: 1.019
Tuberin_pT1462.R.V Norm_20 Average [1]: 1.096
Twist.M.C Norm_20 Average [1]: 0.916
Tyro3.R.V Norm_20 Average [1]: 1.270
U.Histone.H2B.R.C Norm_20 Average [1]: 2.670
UBQLN4.M.C Norm_20 Average [1]: 0.936
UGT1A.M.V Norm_20 Average [1]: 0.975
ULK1_pS757.R.C Norm_20 Average [1]: 0.888
UVRAG.R.C Norm_20 Average [1]: 1.003
VASP.R.V Norm_20 Average [1]: 0.936
VAV1.R.C Norm_20 Average [1]: 1.004
VEGFR.2.R.V Norm_20 Average [1]: 0.966
VEGFR.2_pY1175.R.C Norm_20 Average [1]: 0.978
VHL.EPPK1.M.C Norm_20 Average [1]: 0.882
VHL.R.C Norm_20 Average [1]: 0.906
Vinculin.M.V Norm_20 Average [1]: 0.932
WIPI1.R.C Norm_20 Average [1]: 1.388
WIPI2.R.C Norm_20 Average [1]: 1.126
WTAP.R.V Norm_20 Average [1]: 1.278
Wee1.R.C Norm_20 Average [1]: 0.913
Wee1_pS642.R.C Norm_20 Average [1]: 0.939
XIAP.R.C Norm_20 Average [1]: 0.959
XPA.M.V Norm_20 Average [1]: 0.905
XPF.R.C Norm_20 Average [1]: 0.890
YAP.R.C Norm_20 Average [1]: 0.956
YAP_pS127.R.V Norm_20 Average [1]: 1.018
YB1_pS102.R.V Norm_20 Average [1]: 0.999
YES1.R.V Norm_20 Average [1]: 0.970
YTHDF2.R.V Norm_20 Average [1]: 1.210
YTHDF3.R.C Norm_20 Average [1]: 1.032
ZAP.70.R.V Norm_20 Average [1]: 0.888
ZEB1.R.V Norm_20 Average [1]: 0.961
TSC1.R.C Norm_20_1 to Norm_20_3 [2]: 1.029 and 0.819 and 0.861
TTF1.R.V Norm_20_1 to Norm_20_3 [2]: 1.129 and 1.026 and 1.331
TUFM.R.V Norm_20_1 to Norm_20_3 [2]: 0.786 and 0.994 and 0.727
Tuberin.R.V Norm_20_1 to Norm_20_3 [2]: 0.859 and 0.737 and 1.461
Tuberin_pT1462.R.V Norm_20_1 to Norm_20_3 [2]: 1.032 and 1.164
Twist.M.C Norm_20_1 to Norm_20_3 [2]: 0.837 and 0.972
Tyro3.R.V Norm_20_1 to Norm_20_3 [2]: 1.252 and 1.345 and 1.211
U.Histone.H2B.R.C Norm_20_1 to Norm_20_3 [2]: 1.699 and 5.734 and 0.577
UBAC1.R.V Norm_20_1 to Norm_20_3 [2]: 1.032 and 1.010 and 1.218
UBQLN4.M.C Norm_20_1 to Norm_20_3 [2]: 0.990 and 0.917 and 0.902
UGT1A.M.V Norm_20_1 to Norm_20_3 [2]: 0.904 and 1.048 and 0.973
ULK1_pS757.R.C Norm_20_1 to Norm_20_3 [2]: 0.939 and 0.770 and 0.955
UQCRC2.M.C Norm_20_1 to Norm_20_3 [2]: 0.954 and 1.047 and 1.204
UVRAG.R.C Norm_20_1 to Norm_20_3 [2]: 1.021 and 1.000 and 0.987
VASP.R.V Norm_20_1 to Norm_20_3 [2]: 0.965 and 0.910 and 0.933
VAV1.R.C Norm_20_1 to Norm_20_3 [2]: 1.081 and 0.961 and 0.970
VEGFR.2.R.V Norm_20_1 to Norm_20_3 [2]: 0.959 and 0.914 and 1.026
VEGFR.2_pY1175.R.C Norm_20_1 to Norm_20_3 [2]: 0.916 and 1.050 and 0.968

Reference: paper PMC9127750, “Structure-based design of CDC42 effector interaction inhibitors for the treatment of cancer” (Cell reports, 2022)
